From patent publication US20060211764A1, “Cell activator, process for producing cell activator and apparatus therefor” (priority 2002, published 2006)

Legend:
[1] = system: pyruvic acid kinase; assay: Inhibition of pyruvic acid kinase activity; format: biochemical; details: enzyme of the anaerobic glycolytic pathway
Text: (§1) Morphologically, it causes vacuolation, and the expansion of the cytoplasm of cells, disintegration and aggregation of the nucleus. […] These are considered to inhibit not only the synthesis of ATP but also the actions of mRNA and be involved in the synthesis of RNA and DNA, and the generation of intracellular energy by acting on the metabolism of the intracellular organelle such as rough-surfaced endoplasmic reticulum, smooth-surfaced endoplasmic reticulum, ribosome, Golgi apparatus, etc., and as a result, controlling the metabolism of the cells, influencing the synthesis of proteins/glycoprotein, intracellular lipid metabolism, and movement and transport of ions. […] Morphologically, in the case that cells end up degenerating, the degeneration generally changes first to the nucleus followed by the cytoplasm.

[2] = system: pneumonia; assay: Administration to bovine, pneumonia; format: in vivo; details: 20 g/day for 1-2 days
[3] = system: subclavian lymphoma; assay: Administration to a human patient, subclavian lymphoma; format: in vivo; details: female, 50 g/day for 90 days
[4] = system: cervical malign lymphoma; assay: Administration to a human patient, cervical malign lymphoma; format: in vivo; details: person; 20 g/day for 360 days
[5] = Blood screening and biochemical examination of blood in bovines given CPL; format: in vivo, bovine
[6] = system: baldness; assay: Spray and oral powder, baldness; format: in vivo, human; details: spray twice a day (10 g in terms of CPL powder) and 10 g/day orally for approximately 50 days
Text: The said spraying agent was sprayed on a bald part of a head.

[7] = system: uterine cervical cancer; format: in vivo, human; details: ingesting CPL
Text: In the case of elderly people whose metabolic functions are weaker, ingesting a large amount of a drug often causes adverse reactions and invites risks. […] This patient was taking a strong painkiller when fighting against cancer, which could be replaced by a common painkiller after taking CPL.

[8] = system: bacterial diarrhea; assay: Administration to milking bovines, bacterial diarrhea; format: in vivo, bovine
Text: In the milking bovines, a bacterial diarrhea started to spread. Initially, four bovines infected by the bacterial diarrhea one after another. […] The bovines fed as usual even in the condition of diarrhea and no decrease in the amount of milk was observed.

[9] = system: tongue cancer; assay: Administration to a human patient, tongue cancer; format: in vivo; details: person; 20 g/day for 120 days
[10] = system: ovarian cyst; assay: Administration to human patients, ovarian cyst (ultrasonography, MRI); format: in vivo
Text: A case of a patient whose uterus was extirpated due to uterine myoma. This patient has had two celitomies with a caesarean section. They received an examination for cancer because abnormal bleeding has continued recently. […] Moreover, a prominent part was found in part of the cyst and it was suspected to be malign (Photograph (1)).
The size of the ovarian cyst measured with ultrasonography carried out a few days later was reduced down to approximately 4 cm (Photograph (2)).
A case of a patient whose wedding day was drawing close. […] In consideration that hormone abnormalities were the cause, follow-ups were made for 2-3 weeks. Carrying out a subsequent examination, the ovary was further swollen to 6.5 cm (Photograph 5).

[11] = system: cancer; assay: Several hundreds of patients suffering from cancer taking CPL; format: in vivo, human; details: 10-20 g/day
[12] = system: cancer cells; assay: Effects on cancer cells; format: cell-based
Text: as §1

[13] = system: lipid metabolism system; assay: Effects of CPL ingestion on lipid metabolism; format: in vivo
[14] = system: periodontal disease bacteria; assay: Control of proliferation of periodontal disease bacteria
[15] = system: bone-thinning disease osteoporosis; assay: Administration to a human patient, osteoporosis; format: in vivo; details: person; 6 g/day for 180 days
[16] = system: breast cancer; assay: Administration to human patients, breast cancer; format: in vivo; details: 20 g/day for 210 days
Text: After extirpation, metastasized to the eye.
person, metastasized to the bone marrow.

[17] = system: lung cancer; assay: MIRS values in a patient suffering from lung cancer before and after taking CPL; format: in vivo, human; details: after taking CPL; FIG. 15
Text: In addition, changes in MIRS values in a patient suffering from lung cancer before and after taking CPL.

[18] = system: constipation; assay: Bowel movement and constipation during ingestion; format: in vivo, human; details: CPL ingestion; laxative discontinued
[19] = system: pulmonary cancer metastasis lymphoma; assay: Administration to a human patient, pulmonary cancer metastasis lymphoma; format: in vivo; details: person; 15 g/day for 180 days
[20] = system: leukemia; assay: Administration to human patients, leukemia; format: in vivo; details: person
[21] = system: laryngeal cancer; assay: Administration to a human patient, laryngeal cancer; format: in vivo; details: person; 20 g/day for 150 days
[22] = system: ketosis; assay: Administration to bovines, ketosis (obese syndrome); format: in vivo, bovine; details: 100 g/day mesothiol 10 days before delivery, then 100g/day of CPL in combination for 7 days after delivery
Method: For 10 days before the expected date of delivery, 100 g/day of mesothiol was administered in bovines with ketosis.

[23] = system: hepatitis C; assay: Administration to a human patient, hepatitis C; format: in vivo; details: person; 20 g/day for 16 months

Cyclic Poly-lactate [CPL]
activity of pyruvic acid kinase [1]: inhibits | symptom of pneumonia [2]: improved | CEA ([3]; decreased from 20.4): 5.4 | CA 15 ([3]; decreased from 70): 20.3 | outcome of cervical malign lymphoma [4]: cured | WBC ([5]; bovine 901 (Screening), 3 May, treatment from 30 April, pretreatment 97): 96 ×10^2 | GOT ([5]; bovine 901 (Screening), 3 May, treatment from 30 April, pretreatment 134): 128 U/I | TCHO ([5]; bovine 901 (Screening), 3 May, treatment from 30 April, pretreatment 255): 266 mg/dL | CPK ([5]; bovine 901 (Screening), 3 May, treatment from 30 April, pretreatment 819): 82 U/I | WBC ([5]; bovine 901 (Screening), 7 May, pretreatment 97): 94 ×10^2 | GOT ([5]; bovine 901 (Screening), 7 May, pretreatment 134): 116 U/I | TCHO ([5]; bovine 901 (Screening), 7 May, pretreatment 255): 245 mg/dL | CPK ([5]; bovine 901 (Screening), 7 May, pretreatment 819): 97 U/I | WBC ([5]; bovine 901 (Screening), 10 May, completion date of treatment, pretreatment 97): 71 ×10^2 | GOT ([5]; bovine 901 (Screening), 10 May, completion date of treatment, pretreatment 134): 115 U/I | TCHO ([5]; bovine 901 (Screening), 10 May, completion date of treatment, pretreatment 255): 286 mg/dL | CPK ([5]; bovine 901 (Screening), 10 May, completion date of treatment, pretreatment 819): 113 U/I | WBC ([5]; bovine 923 (Garget), 3 May, treatment from 30 April, Spectrazol 2-4 May, pretreatment 101): 111 ×10^2 | GOT ([5]; bovine 923 (Garget), 3 May, treatment from 30 April, Spectrazol 2-4 May, pretreatment 123): 107 U/I | TCHO ([5]; bovine 923 (Garget), 3 May, treatment from 30 April, Spectrazol 2-4 May, pretreatment 247): 255 mg/dL | CPK ([5]; bovine 923 (Garget), 3 May, treatment from 30 April, Spectrazol 2-4 May, pretreatment 563): 203 U/I | WBC ([5]; bovine 923 (Garget), 7 May, pretreatment 101): 97 ×10^2 | GOT ([5]; bovine 923 (Garget), 7 May, pretreatment 123): 81 U/I | TCHO ([5]; bovine 923 (Garget), 7 May, pretreatment 247): 208 mg/dL | CPK ([5]; bovine 923 (Garget), 7 May, pretreatment 563): 133 U/I | WBC ([5]; bovine 923 (Garget), 10 May, completion date of treatment, pretreatment 101): 110 ×10^2 | GOT ([5]; bovine 923 (Garget), 10 May, completion date of treatment, pretreatment 123): 107 U/I | TCHO ([5]; bovine 923 (Garget), 10 May, completion date of treatment, pretreatment 247): 259 mg/dL | CPK ([5]; bovine 923 (Garget), 10 May, completion date of treatment, pretreatment 563): 121 U/I | other blood responses such as WBC, GOT, and TCHO ([5]; bovines given CPL): no specific changes | CPK (muscle enzyme) mean level ([5]; group of bovines with markedly high levels of CPK): extremely low | hair growth on bald part of head [6]: hair growth is achieved | pain of patients suffering from advanced cancer [7]: diminishes the pain rapidly | response of bacterial diarrhea ([8]; 50 g/day, 100 g/day of Neothor in combination in severe cases, in most bovines): complete response | amount of milk ([8]; bovines with bacterial diarrhea given 50 g/day): no decrease | outcome of tongue cancer [9]: completely disappeared | ovarian cyst at preoperative MRI examination ([10]; patient, 30-40 g/day until operation): disappeared | size of ovarian cyst by ultrasonography ([10]; patient, 30-40 g/day, a few days later, initially approximately 5 cm): approximately 4 cm | ovarian cyst after further administration ([10]; person, 2 weeks after further administration): disappeared completely | size of ovarian cyst by ultrasonography ([10]; person, CPL for 2 weeks, 6.5 cm before): below 4 cm | findings of ameliorated adverse reactions, macrobiotic effects and suggestion of a cure [11]: observed in the majority | proliferation of cancer cells [12]: controls the proliferation | fatty acid composition of triglyceride [13]: changes | controlling the proliferation of periodontal disease bacteria [14]: effective | bone density [15]: increased | course of breast cancer metastasized to the eye ([16]; after extirpation): satisfactory progress | tumor marker ([16]; person, breast cancer metastasized to bone marrow, decreased from 200): 5 | MIRS values in patient suffering from lung cancer [17]: increased significantly | defecation of patients suffering from constipation [18]: improved defecation | course of pulmonary cancer metastasis lymphoma [19]: satisfactory progress | outcome of leukemia ([20]; 15-20 g/day for 170 days): cured | outcome of leukemia ([20]; 15 g/day for 5 months): cured | outcome of leukemia ([20]; 15 g/day for 220 days): cured | recurrence of leukemia ([20]; for 2 years onwards): No recurrence | outcome of laryngeal cancer [21]: cured | level of γGTP ([22]; 100 in onset): 35 | level of GOT ([22]; 549 in onset): 83 | condition of hepatitis C patient [23]: satisfactory condition | shadow on the liver [23]: disappeared
